# Results published in US20100267561A1, “HERBICIDAL PYRIDAZINONE DERIVATIVES” (priority 2007, published 2010).
# Like-named read-outs stand apart in the source and are kept apart here.
# Columns and labels:
# Assay in all cases: Test B pre-/postemergence plant response
# Assay type in all cases: in vivo
# [1] = system: green foxtail (Setaria viridis); details: for pest or weed control at 31 g/ha: 31 g ai/ha; for pest or weed control at 62 g/ha: 62 g ai/ha, 100 complete control
# Procedure, shortened: (§1)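 Preemergence and postemergence (plants 2-18 cm, 1- to 4-leaf stage) applications used test chemicals in a non-phytotoxic solvent with surfactant. Plants were held in a greenhouse 13 to 15 days, then rated visually against controls on a 0-100 scale (0 no effect, 100 complete control).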
# [2] = system: giant foxtail (Setaria faberii); details: for pest or weed control at 31 g/ha: 31 g ai/ha; for pest or weed control at 62 g/ha: 62 g ai/ha, 100 complete control
# Procedure, shortened: as §1
# [3] = system: catchweed bedstraw (Galium aparine); details: Preemergence
# Procedure, shortened: as §1
# [4] = system: bermudagrass (Cynodon dactylon); details: for pest or weed control at 31 g/ha: 31 g ai/ha; for pest or weed control at 62 g/ha: 62 g ai/ha, 100 complete control
# Procedure, shortened: as §1
# [5] = system: large crabgrass (Digitaria sanguinalis); details: for pest or weed control at 31 g/ha: 31 g ai/ha; for pest or weed control at 62 g/ha: 62 g ai/ha, 100 complete control
# Procedure, shortened: as §1
# [6] = system: morningglory (Ipomoea coccinea); details: for pest or weed control at 31 g/ha / pest or weed control at 62 g/ha: Ipomoea, read-out: Plant response rating, Morningglory; for pest or weed control at 31 g/ha: 31 g ai/ha; for pest or weed control at 62 g/ha: 62 g ai/ha, 100 complete control
# Procedure, shortened: as §1
# corn (Zea mays) = details: for Corn plant response rating (crop injury, 0 = no effect, 100 = complete kill) at 31 g/ha: 31 g ai/ha; for Corn plant response rating (crop injury, 0 = no effect, 100 = complete kill) at 62 g/ha: 62 g ai/ha, 100 complete control
# Procedure, shortened: as §1
# [7] = 8 g ai/ha, postemergence, 0-100 scale
# [8] = Preemergence, 8 g ai/ha, scale 0 to 100 (0 no effect, 100 complete control)
# [9] = Preemergence, 16 g ai/ha, scale 0 to 100
structure (smiles),measurement,setting,value
"Cc1cc(-c2ccc(Br)cc2)nn1-c1c(O)cn[nH]c1=O [Compound 78, 4-[3-(4-bromophenyl)-5-methyl-1H-pyrazol-1-yl]-5-hydroxy-3(2H)-pyridazinone]","Foxtail, Green plant response rating",[1]; [7],40
same,"Foxtail, Green plant response rating",[1]; [8],100
same,"Foxtail, Green plant response rating",[1]; [9],100
same,pest or weed control at 16 g/ha,"[1]; Setaria viridis, post-emergence, Postemergence, 16 g ai/ha, scale 0 to 100, read-out: Plant response rating, Foxtail, Green",60%
same,pest or weed control at 31 g/ha,"[1]; Setaria viridis, post-emergence, Postemergence, scale 0 to 100, read-out: Plant response rating, Foxtail, Green",80%
same,pest or weed control at 62 g/ha,"[1]; Setaria viridis, post-emergence, Postemergence, scale 0 to 100, 0 no effect, read-out: Plant response rating, Foxtail, Green",100%
same,pest or weed control at 31 g/ha,"[1]; Setaria viridis, pre-emergence, Preemergence, scale 0 to 100 (0 no effect, 100 complete control), read-out: Plant response rating, Foxtail, Green",100%
same,pest or weed control at 62 g/ha,"[1]; Setaria viridis, pre-emergence, Preemergence, 0 to 100 scale, 0 no effect, read-out: Plant response rating, Foxtail, Green",100%
same,"Foxtail, Giant plant response rating",[2]; [7],98
same,"Foxtail, Giant plant response rating",[2]; [8],98
same,"Foxtail, Giant plant response rating",[2]; [9],100
same,pest or weed control at 16 g/ha,"[2]; Setaria faberi, post-emergence, Postemergence, 16 g ai/ha, scale 0 to 100, read-out: Plant response rating, Foxtail, Giant",100%
same,pest or weed control at 31 g/ha,"[2]; Setaria faberi, post-emergence, Postemergence, scale 0 to 100, read-out: Plant response rating, Foxtail, Giant",100%
same,pest or weed control at 62 g/ha,"[2]; Setaria faberi, post-emergence, Postemergence, scale 0 to 100, 0 no effect, read-out: Plant response rating, Foxtail, Giant",100%
same,pest or weed control at 31 g/ha,"[2]; Setaria faberi, pre-emergence, Preemergence, scale 0 to 100 (0 no effect, 100 complete control), read-out: Plant response rating, Foxtail, Giant",100%
same,pest or weed control at 62 g/ha,"[2]; Setaria faberi, pre-emergence, Preemergence, 0 to 100 scale, 0 no effect, read-out: Plant response rating, Foxtail, Giant",100%
same,pest or weed control at 31 g/ha,"[3]; Galium aparine, pre-emergence, 31 g ai/ha, scale 0 to 100 (0 no effect, 100 complete control), read-out: Plant response rating, Galium",0%
same,pest or weed control at 62 g/ha,"[3]; Galium aparine, pre-emergence, 62 g ai/ha, 0 to 100 scale, 0 no effect, 100 complete control, read-out: Plant response rating, Galium",0%
same,Galium plant response rating,"[3]; 8 g ai/ha, scale 0 to 100 (0 no effect, 100 complete control)",0
same,Galium plant response rating,"[3]; 16 g ai/ha, scale 0 to 100",0
same,Bermudagrass plant response rating,[4]; [7],80
same,pest or weed control at 16 g/ha,"[4]; Cynodon dactylon, post-emergence, Postemergence, 16 g ai/ha, scale 0 to 100, read-out: Plant response rating, Bermudagrass",98%
same,pest or weed control at 31 g/ha,"[4]; Cynodon dactylon, post-emergence, Postemergence, scale 0 to 100, read-out: Plant response rating, Bermudagrass",100%
same,pest or weed control at 62 g/ha,"[4]; Cynodon dactylon, post-emergence, Postemergence, scale 0 to 100, 0 no effect, read-out: Plant response rating, Bermudagrass",100%
same,pest or weed control at 31 g/ha,"[4]; Cynodon dactylon, pre-emergence, Preemergence, scale 0 to 100 (0 no effect, 100 complete control), read-out: Plant response rating, Bermudagrass",100%
same,pest or weed control at 62 g/ha,"[4]; Cynodon dactylon, pre-emergence, Preemergence, 0 to 100 scale, 0 no effect, read-out: Plant response rating, Bermudagrass",100%
same,Bermudagrass plant response rating,[4]; [8],85
same,Bermudagrass plant response rating,"[4]; Preemergence, 16 g ai/ha, scale 0 to 100 (0 no effect, 100 complete control)",100
same,"Crabgrass, Large plant response rating",[5]; [7],98
same,pest or weed control at 16 g/ha,"[5]; Digitaria sanguinalis, post-emergence, Postemergence, 16 g ai/ha, scale 0 to 100, read-out: Plant response rating, Crabgrass, Large",100%
same,pest or weed control at 31 g/ha,"[5]; Digitaria sanguinalis, post-emergence, Postemergence, scale 0 to 100, read-out: Plant response rating, Crabgrass, Large",100%
same,pest or weed control at 62 g/ha,"[5]; Digitaria sanguinalis, post-emergence, Postemergence, scale 0 to 100, 0 no effect, read-out: Plant response rating, Crabgrass, Large",100%
same,pest or weed control at 31 g/ha,"[5]; Digitaria sanguinalis, pre-emergence, Preemergence, scale 0 to 100 (0 no effect, 100 complete control), read-out: Plant response rating, Crabgrass, Large",100%
same,pest or weed control at 62 g/ha,"[5]; Digitaria sanguinalis, pre-emergence, Preemergence, 0 to 100 scale, 0 no effect, read-out: Plant response rating, Crabgrass, Large",100%
same,"Crabgrass, Large plant response rating",[5]; [8],15
same,"Crabgrass, Large plant response rating",[5]; [9],95
same,Morningglory plant response rating,[6]; [7],0
same,Morningglory plant response rating,"[6]; 16 g ai/ha, postemergence, 0-100 scale",0
same,pest or weed control at 31 g/ha,"[6]; post-emergence, Postemergence, scale 0 to 100",0%
same,pest or weed control at 62 g/ha,"[6]; post-emergence, Postemergence, scale 0 to 100, 0 no effect",0%
same,pest or weed control at 31 g/ha,"[6]; pre-emergence, Preemergence, scale 0 to 100 (0 no effect, 100 complete control)",0%
same,pest or weed control at 62 g/ha,"[6]; pre-emergence, Preemergence, 0 to 100 scale, 0 no effect",0%
same,Morningglory plant response rating,[6]; [8],0
same,Morningglory plant response rating,[6]; [9],0
same,Corn plant response rating,corn (Zea mays); [7],40
same,Corn plant response rating,corn (Zea mays); [8],55
same,Corn plant response rating,corn (Zea mays); [9],85
same,"Corn plant response rating (crop injury, 0 = no effect, 100 = complete kill) at 16 g/ha","corn (Zea mays); Zea mays, post-emergence, Postemergence, 16 g ai/ha, scale 0 to 100",100%
same,"Corn plant response rating (crop injury, 0 = no effect, 100 = complete kill) at 31 g/ha","corn (Zea mays); Zea mays, post-emergence, Postemergence, scale 0 to 100",100%
same,"Corn plant response rating (crop injury, 0 = no effect, 100 = complete kill) at 62 g/ha","corn (Zea mays); Zea mays, post-emergence, Postemergence, scale 0 to 100, 0 no effect",100%
same,"Corn plant response rating (crop injury, 0 = no effect, 100 = complete kill) at 31 g/ha","corn (Zea mays); Zea mays, pre-emergence, Preemergence, scale 0 to 100 (0 no effect, 100 complete control)",100%
same,"Corn plant response rating (crop injury, 0 = no effect, 100 = complete kill) at 62 g/ha","corn (Zea mays); Zea mays, pre-emergence, Preemergence, 0 to 100 scale, 0 no effect",100%
